From the NIST ThermoML archive (doi:10.1016/j.fluid.2006.05.015)
Numbers after ± are expanded uncertainties.

Experiment: mn = molality of the nth substance listed, in mol/kg
Details: Liquid, Constant-volume piezometry

[Br-].[K+] [potassium bromide] + O
Details	mass density [kg/m3]
298.15 K, 101 kPa, m1 = 0.2378	1017 ± 1.2
298.15 K, 101 kPa, m1 = 0.4645	1035.5 ± 1.2
298.15 K, 101 kPa, m1 = 0.944	1073.1 ± 1.3
298.15 K, 101 kPa, m1 = 2.231	1167.1 ± 1.4
298.94 K, 4079 kPa, m1 = 0.944	1074.6 ± 1.3
298.94 K, 13886 kPa, m1 = 0.944	1079.1 ± 1.3
298.94 K, 28950 kPa, m1 = 0.944	1085.8 ± 1.3
303.15 K, 101 kPa, m1 = 0.2378	1015.5 ± 1.2
303.15 K, 101 kPa, m1 = 0.4645	1033.8 ± 1.2
303.15 K, 101 kPa, m1 = 0.944	1071.4 ± 1.3
303.15 K, 101 kPa, m1 = 2.231	1164.9 ± 1.4
305.49 K, 3020 kPa, m1 = 0.2378	1016 ± 1.2
305.49 K, 10375 kPa, m1 = 0.2378	1019.1 ± 1.2
305.49 K, 27594 kPa, m1 = 0.2378	1026.4 ± 1.3
308.15 K, 101 kPa, m1 = 0.2378	1013.7 ± 1.2
308.15 K, 101 kPa, m1 = 0.4645	1032 ± 1.2
308.15 K, 101 kPa, m1 = 0.944	1069.3 ± 1.3
308.15 K, 101 kPa, m1 = 2.231	1162.4 ± 1.4
308.32 K, 3256 kPa, m1 = 0.4645	1033.3 ± 1.2
308.32 K, 10375 kPa, m1 = 0.4645	1036.5 ± 1.3
308.32 K, 29078 kPa, m1 = 0.4645	1044.3 ± 1.3
310.59 K, 2118 kPa, m1 = 2.231	1162.1 ± 1.4
310.59 K, 14710 kPa, m1 = 2.231	1167.8 ± 1.4
310.59 K, 19825 kPa, m1 = 2.231	1170.1 ± 1.4
310.59 K, 29828 kPa, m1 = 2.231	1174.5 ± 1.5
313.15 K, 101 kPa, m1 = 0.2378	1011.8 ± 1.2
313.15 K, 101 kPa, m1 = 0.4645	1030.1 ± 1.2
313.15 K, 101 kPa, m1 = 0.944	1067.2 ± 1.3
313.15 K, 101 kPa, m1 = 2.231	1159.9 ± 1.4
318.15 K, 101 kPa, m1 = 0.2378	1009.8 ± 1.2
318.15 K, 101 kPa, m1 = 0.4645	1027.9 ± 1.2
318.15 K, 101 kPa, m1 = 0.944	1065 ± 1.3
318.15 K, 101 kPa, m1 = 2.231	1157.4 ± 1.4
323.15 K, 101 kPa, m1 = 0.2378	1007.5 ± 1.2
323.15 K, 101 kPa, m1 = 0.4645	1025.6 ± 1.2
323.15 K, 101 kPa, m1 = 0.944	1062.5 ± 1.3
323.15 K, 101 kPa, m1 = 2.231	1154.8 ± 1.4
328.15 K, 101 kPa, m1 = 0.2378	1005.1 ± 1.2
328.15 K, 101 kPa, m1 = 0.4645	1023.2 ± 1.2
328.15 K, 101 kPa, m1 = 0.944	1060 ± 1.3
328.15 K, 101 kPa, m1 = 2.231	1152.1 ± 1.4
333.15 K, 101 kPa, m1 = 0.2378	1002.6 ± 1.2
333.15 K, 101 kPa, m1 = 0.4645	1020.5 ± 1.2
333.15 K, 101 kPa, m1 = 0.944	1057.4 ± 1.3
333.15 K, 101 kPa, m1 = 2.231	1149.3 ± 1.4
338.15 K, 101 kPa, m1 = 0.2378	999.9 ± 1.2
338.15 K, 101 kPa, m1 = 0.4645	1017.8 ± 1.2
338.15 K, 101 kPa, m1 = 0.944	1054.6 ± 1.3
338.15 K, 101 kPa, m1 = 2.231	1146.4 ± 1.4
343.15 K, 101 kPa, m1 = 0.2378	997.1 ± 1.2
343.15 K, 101 kPa, m1 = 0.4645	1014.9 ± 1.2
343.15 K, 101 kPa, m1 = 0.944	1051.7 ± 1.3
343.33 K, 3923 kPa, m1 = 0.4645	1016.4 ± 1.2
343.33 K, 9552 kPa, m1 = 0.4645	1018.7 ± 1.2
343.33 K, 16550 kPa, m1 = 0.4645	1021.6 ± 1.3
343.33 K, 28570 kPa, m1 = 0.4645	1026.7 ± 1.3
348.15 K, 101 kPa, m1 = 0.2378	994.2 ± 1.2
348.15 K, 101 kPa, m1 = 0.4645	1012 ± 1.2
348.15 K, 101 kPa, m1 = 0.944	1048.7 ± 1.3
349.79 K, 3334 kPa, m1 = 0.2378	994.6 ± 1.2
349.79 K, 11278 kPa, m1 = 0.2378	997.9 ± 1.2
349.79 K, 23461 kPa, m1 = 0.2378	1003.1 ± 1.2
349.79 K, 29380 kPa, m1 = 0.2378	1005.5 ± 1.3
358.08 K, 3668 kPa, m1 = 0.944	1043.1 ± 1.3
358.08 K, 10120 kPa, m1 = 0.944	1046.1 ± 1.3
358.08 K, 29145 kPa, m1 = 0.944	1054.5 ± 1.3
359.48 K, 3824 kPa, m1 = 2.231	1132.6 ± 1.4
359.48 K, 10866 kPa, m1 = 2.231	1135.7 ± 1.4
359.48 K, 18995 kPa, m1 = 2.231	1139.3 ± 1.4
359.48 K, 25870 kPa, m1 = 2.231	1142.3 ± 1.4
380.97 K, 3746 kPa, m1 = 0.4645	990.6 ± 1.2
380.97 K, 9316 kPa, m1 = 0.4645	993.2 ± 1.2
380.97 K, 21042 kPa, m1 = 0.4645	998.6 ± 1.2
380.97 K, 29750 kPa, m1 = 0.4645	1002.5 ± 1.3
393.11 K, 3256 kPa, m1 = 0.2378	963.5 ± 1.2
393.11 K, 10866 kPa, m1 = 0.2378	967.2 ± 1.2
393.11 K, 21065 kPa, m1 = 0.2378	972 ± 1.2
393.11 K, 26860 kPa, m1 = 0.2378	974.7 ± 1.2
400.81 K, 3099 kPa, m1 = 0.944	1010.2 ± 1.2
400.81 K, 9061 kPa, m1 = 0.944	1013 ± 1.2
400.81 K, 18381 kPa, m1 = 0.944	1017.7 ± 1.3
400.81 K, 25438 kPa, m1 = 0.944	1020.8 ± 1.3
432.97 K, 4236 kPa, m1 = 2.231	1073.5 ± 1.3
432.97 K, 11356 kPa, m1 = 2.231	1077.7 ± 1.3
432.97 K, 16570 kPa, m1 = 2.231	1080.7 ± 1.4
432.97 K, 22357 kPa, m1 = 2.231	1084 ± 1.4
434.09 K, 4805 kPa, m1 = 0.2378	928.1 ± 1.1
434.09 K, 9218 kPa, m1 = 0.2378	930.6 ± 1.2
434.09 K, 16941 kPa, m1 = 0.2378	935 ± 1.2
434.09 K, 28064 kPa, m1 = 0.2378	941.1 ± 1.2
453.99 K, 3825 kPa, m1 = 0.4645	925.6 ± 1.1
453.99 K, 9140 kPa, m1 = 0.4645	928.9 ± 1.2
453.99 K, 16241 kPa, m1 = 0.4645	933.5 ± 1.2
453.99 K, 22957 kPa, m1 = 0.4645	937.5 ± 1.2
456.48 K, 4158 kPa, m1 = 0.944	959.4 ± 1.2
456.48 K, 10120 kPa, m1 = 0.944	963.3 ± 1.2
456.48 K, 17148 kPa, m1 = 0.944	967.9 ± 1.2
456.48 K, 24027 kPa, m1 = 0.944	972.2 ± 1.2
475.7 K, 4903 kPa, m1 = 0.2378	884.5 ± 1.1
475.7 K, 10611 kPa, m1 = 0.2378	888.7 ± 1.1
475.7 K, 22060 kPa, m1 = 0.2378	896.6 ± 1.1
475.7 K, 29860 kPa, m1 = 0.2378	902 ± 1.2
482.36 K, 4413 kPa, m1 = 0.4645	893.9 ± 1.1
482.36 K, 8571 kPa, m1 = 0.4645	897 ± 1.1
482.36 K, 15175 kPa, m1 = 0.4645	902 ± 1.1
482.36 K, 20588 kPa, m1 = 0.4645	905.8 ± 1.2
483.32 K, 5217 kPa, m1 = 2.231	1024.2 ± 1.3
483.32 K, 12082 kPa, m1 = 2.231	1029.2 ± 1.3
483.32 K, 22088 kPa, m1 = 2.231	1036.8 ± 1.3
483.32 K, 26194 kPa, m1 = 2.231	1039.4 ± 1.3
493.15 K, 4413 kPa, m1 = 0.944	918.4 ± 1.1
493.15 K, 11591 kPa, m1 = 0.944	923.9 ± 1.2
493.15 K, 21454 kPa, m1 = 0.944	931.3 ± 1.2
493.15 K, 25284 kPa, m1 = 0.944	934.3 ± 1.2
505.79 K, 5786 kPa, m1 = 2.231	999.3 ± 1.2
505.79 K, 11846 kPa, m1 = 2.231	1004 ± 1.3
505.79 K, 16954 kPa, m1 = 2.231	1007.9 ± 1.3
505.79 K, 23854 kPa, m1 = 2.231	1013.5 ± 1.3
511.39 K, 6119 kPa, m1 = 0.4645	858.4 ± 1.1
511.39 K, 10297 kPa, m1 = 0.4645	862.3 ± 1.1
511.39 K, 16047 kPa, m1 = 0.4645	867.8 ± 1.1
511.39 K, 24184 kPa, m1 = 0.4645	875.1 ± 1.1
520.89 K, 7355 kPa, m1 = 0.944	884.8 ± 1.1
520.89 K, 12082 kPa, m1 = 0.944	889.3 ± 1.1
520.89 K, 20122 kPa, m1 = 0.944	896.9 ± 1.2
534.22 K, 8081 kPa, m1 = 0.2378	809.6 ± 1
534.22 K, 11356 kPa, m1 = 0.2378	813.5 ± 1
534.22 K, 23496 kPa, m1 = 0.2378	827 ± 1.1
540.44 K, 8571 kPa, m1 = 0.4645	819.8 ± 1
540.44 K, 11591 kPa, m1 = 0.4645	823.1 ± 1
540.44 K, 22189 kPa, m1 = 0.4645	836.2 ± 1.1
551.72 K, 9140 kPa, m1 = 0.944	842.2 ± 1.1
551.72 K, 14533 kPa, m1 = 0.944	848.7 ± 1.1
551.72 K, 21645 kPa, m1 = 0.944	857.5 ± 1.1
555.7 K, 9708 kPa, m1 = 2.231	941.3 ± 1.2
555.7 K, 13965 kPa, m1 = 2.231	946 ± 1.2
555.7 K, 19995 kPa, m1 = 2.231	952.8 ± 1.2
555.7 K, 23967 kPa, m1 = 2.231	957 ± 1.3
579.16 K, 11670 kPa, m1 = 0.944	797.3 ± 1
579.16 K, 14220 kPa, m1 = 0.944	803 ± 1
579.16 K, 20665 kPa, m1 = 0.944	816.1 ± 1.1
579.16 K, 23665 kPa, m1 = 0.944	822.3 ± 1.1
580.61 K, 11023 kPa, m1 = 0.4645	754.1 ± 1
580.61 K, 12494 kPa, m1 = 0.4645	757.8 ± 1
580.61 K, 19782 kPa, m1 = 0.4645	773.2 ± 1
592.65 K, 11234 kPa, m1 = 0.2378	698.5 ± 0.9
592.65 K, 13731 kPa, m1 = 0.2378	706.6 ± 0.9
592.65 K, 20610 kPa, m1 = 0.2378	725.2 ± 1
608.09 K, 16573 kPa, m1 = 0.4645	703.4 ± 0.9
608.09 K, 17652 kPa, m1 = 0.4645	707.1 ± 0.9
608.09 K, 23146 kPa, m1 = 0.4645	725.8 ± 1
616.41 K, 14847 kPa, m1 = 0.944	714.7 ± 0.9
616.41 K, 15769 kPa, m1 = 0.944	727.1 ± 1
616.41 K, 19875 kPa, m1 = 0.944	753.5 ± 1
628.63 K, 17475 kPa, m1 = 2.231	841.1 ± 1.1
628.63 K, 18221 kPa, m1 = 2.231	844.9 ± 1.1
